Data on one compound can be found in patent publication US9340477B2, “Process for production of hydroxystilbene derivative having physiological activity” (UHA MIKAKUTO CO., LTD., priority 2010, dated 2016).

Data set [1] is described as follows: Physicochemical properties: solubility in solvents.
In data set [2] the test system is SCC-4 cells (human oral cancer cells, ATCC). Kind of data set: Cancer cell growth suppressing action using SCC-4 oral cancer cells (Cell counting kit-8). The format is cell-based. To be noted: 6.3-100 μM, Cell counting kit-8, DMSO negative control, read-out: Cell growth suppressing ability (IC50). As to the method:
Next, in order to see the effect of the hydroxystilbene derivative to oral cancer cells, cancer cell growth suppressing action using SCC-4 cells (human oral cancer cells, ATCC) was tested.
For culturing the SCC-4 cells, a DMEM/F-12 (1:1) culture medium (manufactured by GIBCO) containing 400 ng/mL hydrocortisone (manufactured by Sigma-Aldrich Japan), 1% antibiotic-antimycotic (manufactured by GIBCO), and 10% FBS (Foetal Bovine Serum, manufactured by ATCC) was used. For the test, a collagen I coat 96 well plate for cell culture (manufactured by Japan BD) was used, and SCC-4 cells whose number of cells was adjusted to be 5×10^5 cells/mL were seeded at 100 μL per well. The cells were cultured under the conditions of 37° C. and 5% CO2 for 24 hours, and were used for the test in a confluent state of 80% or higher.
As samples, p-coumaric acid, ferulic acid, caffeic acid, sinapic acid, resveratrol, pterostilbene, piceatannol, and the UHA1027, the UHA1028, the UHA1123, the UHA1124, the UHA1125, the UHA7032, the UHA7033, the UHA7034, and the UHA9021 which were already purified were used. With respect to the preparation of the samples, each compound was dissolved in DMSO, and then prepared in such a manner as to achieve 0.63 mM, 1.25 mM, 2.5 mM, 5 mM, and 10 mM. The samples were added in such a manner that the final concentration in the SCC-4 cell culture solution was 6.3 μM, 12.5 μM, 25 μM, 50 μM, and 100 μM. Then, the test was started. A sample to which an equivalent amount of only DMSO as the solvent was added was used as a negative control.
The number of viable cells was quantified by an MTT method using a “Cell counting kit-8” in the same manner as in Example 15, and the concentration IC50 at which the cell growth is suppressed by 50% was calculated.

Data set [3] relates to HL-60 cells (human promyelocytic leokemia cells). Briefly: Cancer cell growth suppressing action using HL-60 cells (Cell counting kit-8). Particulars: 24 hours, 6.3-100 μM, viable cells vs DMSO only, read-out: Cell growth suppressing ability to HL-60 (IC50). The format is cell-based. As to the method: Next, in order to see the effect of the hydroxystilbene derivative to cancer cells, cancer cell growth suppressing action using HL-60 cells (human promyelocytic leokemia cells) was tested.
For culturing the HL-60 cells, an enriched culture medium “RPMI-1640” (manufactured by Sigma-Aldrich Japan) containing 4 mM glutamine (L-Glutamine, manufactured by Sigma-Aldrich Japan) and 10% FBS (Foetal Bovine Serum, manufactured by Biological Industries) was used. For the test, a 96-well plate for cell culture (manufactured by Corning Japan) was used, and the HL-60 cells whose number of cells was adjusted to be 5×10^5 cells/mL were seeded at 100 μL per well
As samples, p-coumaric acid, ferulic acid, caffeic acid, sinapic acid, resveratrol, pterostilbene, and the UHA1027, the UHA1028, the UHA1123, the UHA1124, the UHA1125, the UHA7032, the UHA7033, and the UHA9021 which were already purified were used. With respect to the preparation of the samples, each compound was dissolved in DMSO (Wako Pure Chemical Industries, Ltd.), and then adjusted in such a manner that the final concentration in the HL-60 cell culture solutions was 6.3 μM, 12.5 μM, 25 μM, 50 μM, and 100 μM. Then, the test was started.
The number of viable cells was quantified by an MTT method using a “Cell counting kit-8” (manufactured by DOJINDO LABORATORIES). 24 hours after starting the test, 10 μL of a Cell counting kit-8 solution was added to each well, and then sufficiently stirred. After a shading reaction for 1 hour, the absorbancy was measured at a measurement wavelength of 450 nm using a plate leader (Biorad Laboratories, Inc., “BIO-RAD Model 680”). Then, the cell viability was calculated based on the obtained data. The cell viability is a value obtained by setting the number of viable cells of the culture liquid to which only DMSO as a solvent was added to 100%, and then calculating the number of viable cells under the concentration of each compound as a relative value. From the relationship between the concentration of each compound and the cell viability, the concentration IC50 (50% inhibition concentration) at which the cell growth is suppressed by 50% was calculated.
For orientation: Tetrazolium assays rely on reduction of a dye to a coloured formazan, in cell work by metabolically active cells.

Data set [4] has as its target rat intestine derived lipase. Briefly: Lipase inhibitory action test (Lipase kit S). Particulars: rat intestine acetone powder lipase, 30° C., 10 minutes reaction. The format is biochemical. As to the method: In order to see the inhibitory action to lipase of the hydroxystilbene derivative, an inhibitory action test using rat intestine derived lipase was performed.
As lipase, one obtained by suspending 100 mg of rat derived intestine acetone powder (manufactured by Sigma-Aldrich Japan) in 1 mL of 100 mM citric acid buffer (pH 6.0), stirred at 4° C. for 1 hour, centrifuging the same (at 15000 rpm for 45 minutes at 4° C.), and then diluting the supernatant by 1500 times was used as a lipase solution.
As samples, p-coumaric acid, caffeic acid, sinapic acid, resveratrol, and the UHA1027, the UHA1028, and the UHA9021 which were already purified were used. With respect to the preparation of the samples, each compound was dissolved in DMSO, and then prepared in such a manner as to achieve 0.1 mM, 0.5 mM, 1 mM, 2 mM, and 4 mM.
For measuring the activity, a “Lipase kit S” (Trade name, manufactured by Dainippon Pharmaceutical Co., Ltd.) was used. First, in accordance with a preparation method described in the catalog of the Lipase kit S, a color developing liquid was prepared. Reaction liquids in which 70 μl of the color developing liquid, 2 μl of an esterase inhibitor, 10 μl of the lipase solution, and 10 μl of the samples (Final concentration: 10 μM, 50 μM, 100 μM, 200 μM, 400 μM, and 1000 μM) were mixed were prepared, preincubated at 30° C. for 5 minutes, and then 8 μl of a substrate solution described in the catalog was added. Then, a reaction was started. After reacting for 10 minutes, 150 μl of a reaction stop liquid prepared in accordance with the preparation method described in the catalog of the Lipase kit S was added to stop the reaction. The resultant substance was subjected to a measurement of absorbancy at a wavelength of 415 nm. A reaction liquid to which only DMSO as the solvent of the sample was added was used as a positive control and one to which 10 μl of 100 mM citric acid buffer (pH 6.0) was added instead of the lipase solution was used as a negative control. From the relationship between the lipase inhibition rate calculated based on the data obtained therefrom and the concentration of each compound, the concentration IC50 at which the lipase activity is inhibited by 50% was calculated.

In the case of `COc1cc(C(C)c2c(O)cc(/C=C/c3ccc(O)cc3)cc2O)cc(OC)c1O` (stereo not drawn) [UHA1028], the “Solubility: DMSO” value in data set [1] (DMSO) is listed as “Soluble”. Moreover, in data set [1] (chloroform), the “Solubility: Chloroform” value was “Soluble”. In data set [1] (ethanol), the “Solubility: Ethanol” value is “Soluble”. The “Solubility: Ethyl acetate” value in data set [1] (ethyl acetate) is on record as “Soluble”. Further, the “Solubility: Methanol” value in data set [1] (methanol) is reported as “Soluble”. Besides, the “Solubility: Water” value in data set [1] (water) was “Poorly soluble”. In addition, the half-inhibitory concentration (IC50) in data set [2] stood at 17.6 µM; in data set [3], 14.1 µM; in data set [4], 510 µM.

For orientation: IC50 means the concentration needed to halve the response being measured.
